Assay [1] deals with human TLR7 (Homo sapiens (Human), UniProt Q9NYK1). As to the kind of experiment: HEK-Blue human TLR7 cells, NF-κB SEAP reporter assay. It is filed as cell-based. The note with it: 20 hours stimulation. From the text: (§1) For TLR8 and TLR7 activity testing, HEK-Blue human TLR8 or TLR7 cells (Invivogen, San Diego, Calif., USA) are used, respectively. These cells are designed for studying the stimulation of human TLR8 or TLR7 by monitoring the activation of NF-κB. A SEAP (secreted embryonic alkaline phosphatase) reporter gene is placed under the control of the IFN-b minimal promoter fused to five NF-κB and AP-1-binding sites. Therefore the reporter expression is regulated by the NF-κB promoter upon stimulation of human TLR8 or TLR7 for 20 hours. The cell culture supernatant SEAP reporter activity was determined using Quanti Blue kit (Invivogen, San Diego, Ca, USA) at a wavelength of 640 nm, a detection medium that turns purple/blue in the presence of alkaline phosphatase. EC50 values were determined using Activity Base analysis (ID Business Solution, Limited).
Sequence of human TLR7 (Q9NYK1 27-1049): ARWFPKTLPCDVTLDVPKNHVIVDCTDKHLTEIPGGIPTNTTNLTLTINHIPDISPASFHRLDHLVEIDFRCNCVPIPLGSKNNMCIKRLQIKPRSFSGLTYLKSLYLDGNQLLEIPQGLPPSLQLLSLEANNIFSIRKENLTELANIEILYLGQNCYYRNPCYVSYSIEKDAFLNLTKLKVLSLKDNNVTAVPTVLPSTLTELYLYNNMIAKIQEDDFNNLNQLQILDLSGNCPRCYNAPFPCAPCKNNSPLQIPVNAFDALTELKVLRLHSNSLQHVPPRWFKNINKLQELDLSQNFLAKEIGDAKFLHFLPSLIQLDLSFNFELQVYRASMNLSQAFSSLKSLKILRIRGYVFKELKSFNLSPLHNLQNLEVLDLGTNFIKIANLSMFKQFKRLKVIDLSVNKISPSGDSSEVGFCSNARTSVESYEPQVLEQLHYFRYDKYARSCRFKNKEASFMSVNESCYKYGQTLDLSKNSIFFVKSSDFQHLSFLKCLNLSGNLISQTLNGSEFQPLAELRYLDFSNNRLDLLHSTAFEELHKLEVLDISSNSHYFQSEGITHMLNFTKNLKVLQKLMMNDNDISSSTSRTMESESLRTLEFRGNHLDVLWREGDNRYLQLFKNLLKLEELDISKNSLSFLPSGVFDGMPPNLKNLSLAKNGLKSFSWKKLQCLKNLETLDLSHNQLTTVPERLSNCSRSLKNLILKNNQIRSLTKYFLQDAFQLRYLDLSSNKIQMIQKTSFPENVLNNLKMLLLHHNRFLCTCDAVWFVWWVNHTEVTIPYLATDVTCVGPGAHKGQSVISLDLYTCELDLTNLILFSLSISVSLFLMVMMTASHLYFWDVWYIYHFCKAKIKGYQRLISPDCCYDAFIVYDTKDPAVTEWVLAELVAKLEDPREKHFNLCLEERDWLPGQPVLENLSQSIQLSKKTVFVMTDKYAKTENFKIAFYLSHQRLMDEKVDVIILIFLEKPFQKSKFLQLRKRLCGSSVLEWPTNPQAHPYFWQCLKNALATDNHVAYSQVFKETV

For assay [2], the target named is human TLR8 (Homo sapiens (Human), UniProt Q9NR97). As to the kind of experiment: HEK-Blue human TLR8 cells, NF-κB SEAP reporter assay. In kind it is cell-based. Conditions: 20 hours stimulation.
Sequence of human TLR8 (Q9NR97 27-1041): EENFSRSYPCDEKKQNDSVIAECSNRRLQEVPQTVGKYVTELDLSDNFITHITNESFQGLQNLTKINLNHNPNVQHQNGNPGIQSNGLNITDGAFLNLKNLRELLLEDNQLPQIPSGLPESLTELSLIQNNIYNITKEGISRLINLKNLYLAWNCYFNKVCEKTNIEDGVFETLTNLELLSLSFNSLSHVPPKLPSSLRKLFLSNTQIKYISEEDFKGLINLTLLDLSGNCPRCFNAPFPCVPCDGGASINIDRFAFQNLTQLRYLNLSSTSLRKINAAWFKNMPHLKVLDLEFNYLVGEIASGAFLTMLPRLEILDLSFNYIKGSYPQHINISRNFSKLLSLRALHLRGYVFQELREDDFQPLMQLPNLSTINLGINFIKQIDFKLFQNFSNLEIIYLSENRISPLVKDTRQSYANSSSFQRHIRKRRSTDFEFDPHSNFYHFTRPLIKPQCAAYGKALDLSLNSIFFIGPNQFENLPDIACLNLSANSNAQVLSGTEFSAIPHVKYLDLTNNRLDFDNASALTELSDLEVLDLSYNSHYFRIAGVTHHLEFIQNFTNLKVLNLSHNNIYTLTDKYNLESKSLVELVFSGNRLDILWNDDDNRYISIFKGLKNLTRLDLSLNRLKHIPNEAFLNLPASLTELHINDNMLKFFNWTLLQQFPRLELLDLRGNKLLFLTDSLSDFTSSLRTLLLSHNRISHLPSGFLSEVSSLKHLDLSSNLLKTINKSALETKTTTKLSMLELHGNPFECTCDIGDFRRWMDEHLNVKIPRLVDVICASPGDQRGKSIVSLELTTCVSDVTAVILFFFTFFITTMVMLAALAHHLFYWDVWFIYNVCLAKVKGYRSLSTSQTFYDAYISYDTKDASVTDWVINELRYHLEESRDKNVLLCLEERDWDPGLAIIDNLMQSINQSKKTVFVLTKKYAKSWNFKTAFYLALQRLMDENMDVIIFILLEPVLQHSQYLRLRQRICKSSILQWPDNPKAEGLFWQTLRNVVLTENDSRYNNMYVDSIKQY
From the text: as §1
For orientation: A reporter such as luciferase makes a cellular process visible.

As a reminder, the EC50 is the concentration giving half of the maximal effect. Low values mean higher potency in that assay, high ones lower potency in that assay.

Consider `CCCN(CCC)C(=O)C1=Cc2ccc(C3=NCc4ccccc4N3)cc2N=C(N)C1` [Example 1, 2-Amino-8-(1,4-dihydroquinazolin-2-yl)-N,N-dipropyl-3H-1-benzazepine-4-carboxamide], for which the EC50 in assay [1] was above 100000 nM; in assay [2] it was 3 nM.
For `CCCN(CCC)C(=O)C1=Cc2ccc(C3=NCc4ccncc4N3)cc2N=C(N)C1` [Example 2, 2-Amino-8-(1,4-dihydropyrido[3,4-d]pyrimidin-2-yl)-N,N-dipropyl-3H-1-benzazepine-4-carboxamide] the same measures were above 100000 nM and 3 nM.
On the same counts, the results for `CCCN(CC1CC1)C(=O)C1=Cc2ccc(C3=NCc4ccccc4N3)cc2N=C(N)C1` [Example 3, 2-Amino-N-(cyclopropylmethyl)-8-(1,4-dihydroquinazolin-2-yl)-N-propyl-3H-1-benzazepine-4-carboxamide] are above 100000 nM and 6 nM.
Turning to `CCCN(CC(C)C)C(=O)C1=Cc2ccc(C3=NCc4ccccc4N3)cc2N=C(N)C1` [Example 4, 2-Amino-8-(1,4-dihydroquinazolin-2-yl)-N-isobutyl-N-propyl-3H-1-benzazepine-4-carboxamide], the EC50 was above 100000 nM in assay [1] and 11 nM in assay [2].
For the molecule `CCCN(CCC)C(=O)C1=Cc2ccc(C3=NCc4c(Cl)cccc4N3)cc2N=C(N)C1` [Example 5, 2-Amino-8-(5-chloro-1,4-dihydroquinazolin-2-yl)-N,N-dipropyl-3H-1-benzazepine-4-carboxamide], in assay [2], the EC50 was determined as 11 nM.
As to `CCCN(CCC)C(=O)C1=Cc2ccc(C3=NCc4ccc(Cl)cc4N3)cc2N=C(N)C1` [Example 6, 2-Amino-8-(7-chloro-1,4-dihydroquinazolin-2-yl)-N,N-dipropyl-3H-1-benzazepine-4-carboxamide], the EC50 in assay [1] was above 100000 nM; in assay [2] it was 9 nM.
For the molecule `CCCN(CCC)C(=O)C1=Cc2ccc(C3=NC(C)(C)c4ccccc4N3)cc2N=C(N)C1` [Example 7, 2-Amino-8-(4,4-dimethyl-1H-quinazolin-2-yl)-N,N-dipropyl-3H-1-benzazepine-4-carboxamide], the EC50 in assay [1] was above 100000 nM; in assay [2], 7 nM.
Turning to `CCCN(CCC)C(=O)C1=Cc2ccc(C3=NCc4cc(Cl)ccc4N3)cc2N=C(N)C1` [Example 8, 2-Amino-8-(6-chloro-1,4-dihydroquinazolin-2-yl)-N,N-dipropyl-3H-1-benzazepine-4-carboxamide], the EC50 in assay [1] is above 100000 nM; in assay [2], 6 nM.
For `CCCN(CCC)C(=O)C1=Cc2ccc(C3=NCc4c(C)cccc4N3)cc2N=C(N)C1` [Example 9, 2-Amino-8-(5-methyl-1,4-dihydroquinazolin-2-yl)-N,N-dipropyl-3H-1-benzazepine-4-carboxamide] the same measures were above 100000 nM and 1 nM.
For `CCCN(CCC)C(=O)C1=Cc2ccc(C3=NCc4c(F)cccc4N3)cc2N=C(N)C1` [Example 10, 2-Amino-8-(5-fluoro-1,4-dihydroquinazolin-2-yl)-N,N-dipropyl-3H-1-benzazepine-4-carboxamide] the same measures were above 100000 nM and 3 nM.
With `CCCN(CCC)C(=O)C1=Cc2ccc(C3=NCc4cc(OC)ccc4N3)cc2N=C(N)C1` [Example 11, 2-Amino-8-(6-methoxy-1,4-dihydroquinazolin-2-yl)-N,N-dipropyl-3H-1-benzazepine-4-carboxamide], the EC50 is above 100000 nM in assay [1] and 2 nM in assay [2].
